Source: patent US12310967B2, “Compositions and methods of treatment for neurological disorders comprising motor neuron diseases” (Gliapharm SA, priority 2017, dated 2025)

Columns and labels:
[1] = tested on: primary astrocytes; assay: Extracellular lactate quantification; format: cell-based, mouse; details: for Score_LACTATE: Appendix I, secondary screening: extracellular lactate
Method: Secretion of L-lactate was determined in the extracellular medium of 96-well plated astrocytes after 90 min stimulation (at 37° C., in 5% CO2/95% air conditions) with the drug of interest. The stimulation medium was composed of D5030 medium (completed with D-glucose 5 mM and 44 mM sodium bicarbonate) for 90 min in concentrations ranging from 0 to 100 μM.
Briefly, 200 μl of a Glycine (Sigma)-Semicarbazide (Acros) 0.2M pH 10 buffer containing 3 mM NAD (Roche) and LDH 14 U/ml (Roche) was added to each well of a 96-well plate containing 30 μl aliquots complemented with 20 μl fresh complete D5030 medium. Samples were incubated at 37° C. for 1 h. After samples cooled down at room temperature, the fluorescence intensity (340 nm excitation/450 nm emission) that represents the amount of NADH produced was measured, and lactate concentration values were determined from a standard curve of L-lactate.
Statistical analysis consisted in ANOVA followed by Fisher LSD post-hoc test for pair-wise comparisons.
Levels of lactate secreted by astrocytes were measured in the extracellular medium at 90 min after stimulation with hits (molecules) from the CDC54K library.

[2] = tested on: primary astrocytes; assay: High throughput screening (HTS) for lactate secretion: acidification of extracellular medium (SNARF5); format: cell-based, mouse; design: key to Score / HTS Score (SNARF5) / Score_SNARF: fraction of plate positive-control activity (1 = 100%); details: Appendix I; for Score_SNARF: primary screening confirmation (SNARF5)
Method: Primary cultures of cerebrocortical astrocytes were obtained from 1-2-day-old OF1 mouse pups (Charles River Laboratories). Briefly, cortices were isolated and minced in small pieces under a dissecting microscope. The cells were incubated for 30 min at 37° C. in a solution containing 20 U/ml of papain enzyme (Worthington Biochemical), L-cysteine 1 mM (Sigma), and 10 kU/ml DNase I (Worthington Biochemical) for an enzymatic dissociation. Papain activity was stopped by the addition of fetal calf serum (FCS) to the solution, and a single-cell suspension was then obtained by mechanical dissociation, which consisted in cells trituration in a DMEM (D7777, Sigma-Aldrich) medium (supplemented with 44 mm NaHCO3, and 10 ml/L antibiotic/antimycotic solution) containing 10% FCS. The cells were seeded at an average density of 6×10^4 cells/cm^2 in poly-D-lysine-coated 96, 12 or 6-well culture plates, depending on their use, and incubated at 37° C. in a humidified atmosphere containing 5% CO2/95% air. Culture medium was renewed twice per week. Cells were stimulated and harvested between DIV14 and DIV17, when confluence and cell growth were optimal.
Secretion of lactate in a high-throughput screening (HTS) fashion was measured indirectly through the acidification of extracellular medium. To this end, primary astrocytes grown in 96-well plates for 17 days were stimulated with the compounds as listed herein.
After washing the cells twice with stimulation medium (DMEM (D5030, Sigma), 3 mM NaHCO3 and 5 mM Glucose) at 37° C., cells were stimulated with the compounds at a final concentration of 10 uM (1% DMSO final) in 50 ul per well of stimulation medium supplemented with 10 uM of the extracellular pH sensor SNARF-5F %-(AND-6)-CAR (Life Technologies Corporation). Each compound was tested in two different plates for duplicates.
After 90 min stimulation, fluorescence was read at exc. (excitation) 480 nm/emm. (emission) 580 nm and at exc 480 nm/emm. 630 nm. The ratio of fluorescence between 630 nm and 580 emission values, which represents extracellular pH, was calculated.
In each plate, 8 wells were used for negative controls (DMSO) and 8 wells were used for positive controls (CCCP 2 uM in DMSO). Z prime values were calculated for each of the plates tested and values<0 were discarded.
The average and SD of compounds' values tested in duplicates were calculated, and compound was noted as HIT when the difference between compound's average and negative control's average was greater than three times the sum of compound's SD and negative controls' SD. Only scores greater than 40% were considered as lead Hits for the CDC54K library; for the remaining libraries, all hits were considered. Scores are calculated as the % of activity compared to the positive control in each plate (which is 100%).
Primary screening hits were cherry picked on new plates and confirmed for SNARF5 effect, after having discarded those compounds that are fluorescent (exc. 480 nm/emm. 580 nm or 630 nm) before stimulation. Extracellular medium was next analyzed for extracellular lactate quantification for secondary screening.
Identification of lactate-enhancing drugs with high throughput screening (HTS) experiments on astrocytes primary cultures using extracellular pH dye (SNARF5F 5-(and-6)-carboxylic acid) for 90 min. The procedure is described in Material and Methods (2. Cell culture, 2.1. HTS for lactate secretion and 2.2. Extracellular lactate quantification).
The procedure was performed as follows: • Primary screening: acidification of the extracellular medium • Primary screening confirmation: acidification of the extracellular medium, removal of compounds with fluorescent activity at exc. 480 nm/emm. 580 nm or 630 n. • Secondary screening: dosage of extracellular lactate

Row | SMILES | Score_LACTATE [1] | Score_SNARF [2] | Score ([2]; CDC54K primary screening, 10 uM, 90 min, relative to CCCP 2 uM) | Score Lact. ([1]; Appendix II, CDC54K library)
1 | O=C(c1noc2ccc(S(=O)(=O)Nc3cccc(F)c3)cc12)N1CCCC1 [L995-0058] | 0.424 | 0.4197 |  | 
2 | CCn1nccc1-c1csc(S(=O)(=O)Nc2cc(C)ccc2C)c1 [L924-0988] | 0.6139 | 0.6652 |  | 
3 | Cc1ccc(CN2CCN(c3ncnc4c3CCC4)CC2)o1 [T636-1937] | 0.8045 | 0.473 |  | 
4 | CC(=O)c1ccc(NS(=O)(=O)c2cc(-c3noc(C4CCCC4)n3)cs2)cc1 [L287-1577] | 1.215 | 1.059 |  | 
5 | Cc1cc(S(=O)(=O)NCc2ccncc2)c(Cl)cc1Cl [T5581430] | 0 | 0.505 |  | 
6 | O=S(=O)(NC1CCCC1)c1cc(-c2noc(C3CCC3)n2)cs1 [L287-1221] | 0.6602 | 0.5995 |  | 
7 | COc1ccccc1[N+]1=C2CCCCCN2C(O)(c2cccc([N+](=O)[O-])c2)C1 (centres unmarked) [K404-0842] | 0 | 0.2022 | 0.169 | 
8 | COc1ccccc1[N+]1=C2CCCCCN2C(O)(c2ccccc2)C1 (centres unmarked) [K404-0838] | 1.051 | 0.8328 |  | 
9 | COc1ccc(C2(O)C[N+](c3cccc(C)c3)=C3CCCCN32)cc1 (centres unmarked) [K404-0796] | 0 | 0.6402 |  | 
10 | CC(=O)c1cccc(NC(=O)C(C)Sc2ncnc3ccsc23)c1 (centres unmarked) [T5627721] | 0.9487 | 0.7385 |  | 
11 | O=C(NCc1cccc(F)c1)NC1CCN(c2ncnc3c2CCC3)C1 (centres unmarked) [T636-1243] | 0 | 0.4179 |  | 
12 | Cc1nc2ccc(NS(=O)(=O)c3ccccc3F)cc2s1 [T5511047] | 0.3825 | 0.5545 |  | 
13 | Fc1ccc(Nc2nc(N3CCOCC3)c3ccccc3n2)cc1 [T0508-5193] | 0 | 0.3052 |  | 
14 | CN(C)Cc1cccc(CNc2ncnc3sccc23)c1 [T6783542] | 1.033 | 0.9183 |  | 
15 | Cc1cccc([N+]2=C3SCCCN3C(O)(c3ccc(Cl)cc3)C2)c1.[Br-] (centres unmarked) [F0522-0533] | 0 | 0.4705 |  | 
16 | COc1ccc(C2(O)C[N+](c3cc(C)ccc3C)=C3SCCCN32)c(F)c1 (centres unmarked) [K404-0183] | 0 | 0 |  | 
17 | CC(Nc1ncnc2sccc12)c1ccccn1 (centres unmarked) [T5672380] | 0.5883 | 0.7508 |  | 0.58
18 | CC(=O)N1CCCc2cc(S(=O)(=O)NCc3ccccc3)ccc21 [G855-0210] | 0 | 0.3123 |  | 

Row | SMILES | Score_LACTATE [1] | Score_SNARF [2] | Score ([2]; CDC54K primary screening, 10 uM, 90 min, relative to CCCP 2 uM) | Score Lact. ([1]; Appendix II, CDC54K library)
19 | COc1ccccc1[N+]1=C2CCCCN2C(O)(c2ccc(F)cc2)C1.[Br-] (centres unmarked) [F0524-0338] | 1.585 | 0.634 |  | 
20 | Cc1ccc(F)cc1NC(=O)Cc1nn(C)c(=O)c2ccccc12 [T6302989] | 0 | 0.4072 |  | 
21 | Cc1cccc(NS(=O)(=O)c2cc(-c3ccnn3C)cs2)c1 [L924-0884] | 0.7362 | 0.7507 |  | 
22 | Cc1ccc(CNS(=O)(=O)c2cc(-c3noc(C4CCCC4)n3)cs2)cc1 [L287-1641] | 0.8035 | 0.626 |  | 
23 | COc1cccc(CNc2ncnc3c2CCC3)c1 [T636-0134] | 0.3283 | 0 |  | 
24 | O=S(=O)(Nc1ccc(F)c(Cl)c1)c1ccc2ccccc2c1 [T5231424] | 0.5258 | 0.3707 |  | 
25 | COc1ccc(C2(O)C[N+](c3ccccc3C)=C3CCCCN32)cc1.[Br-] (centres unmarked) [F0524-0507] | 0 | 0.4491 |  | 
26 | Cn1nccc1C(=O)N1CCC(Nc2ncnc3c2CCC3)C1 (centres unmarked) [T636-2425] | 0.3027 | 0.2725 |  | 
27 | CCNC(=O)C1CCCN(c2ncnc3oc(C)c(C)c23)C1 (centres unmarked) [F228-0534] | 0.3387 | 0.5203 |  | 
28 | O=C(C[n+]1cc(-c2ccc(Br)cc2)n2c1CCCCC2)c1ccccc1.[Br-] [T0500-4648] | 1.116 | 1.034 |  | 
29 | OC1(c2ccccc2)C[N+](c2ccc(Cl)cc2)=C2CCCCN21.[Br-] (centres unmarked) [F0524-0488] | 0 | 0.3489 |  | 
30 | COc1cccc(-c2cc3n(n2)CCCN(Cc2ccncc2)C3)c1 [T202-0973] | 0 | 0.2834 |  | 
31 | Cc1ccsc1C(=O)NC1CCN(c2ncnc3c2CCC3)C1 (centres unmarked) [T636-1114] | 0.5477 | 0.6238 |  | 
32 | O=C(NC1CC1)c1cccc(NS(=O)(=O)c2ccc(N3CCCC3=O)cc2)c1 [T5618591] | 0.3601 | 0.5353 |  | 
33 | COc1ccc(C2(O)C[N+](c3ccccc3C)=C3CCCCCN32)cc1OC (centres unmarked) [K404-0906] | 0 | 0 |  | 
34 | Cc1nc(-c2cccc(NS(=O)(=O)c3ccc(N4CCCC4=O)cc3)c2)cs1 [T5599698] | 0.7496 | 0.8856 |  | 
35 | O=C(NCc1ccccc1)NC1CCN(c2ncnc3c2CCC3)C1 (centres unmarked) [T636-1210] | 0.3226 | 0.4305 |  | 
36 | Cc1ccc(C)c([N+]2=C3CCCCN3C(O)(c3ccc(F)cc3)C2)c1 (centres unmarked) [K404-0697] | 0.6526 | 0.5123 |  | 
